From patent US20090239877A1, “NOVEL 1,2,4-TRIAZOLE DERIVATIVES AND PROCESS OF MANUFACTURING THEREOF” (AETERNA ZENTARIS GmbH, priority 2008, published 2009)

Tests used:
[1] = molecular target: T1, human GHS-R 1a (Homo sapiens, UniProt Q92847); experiment: GHS-R 1a receptor-ligand binding assay (membrane preparations from transfected LLC PK-1 cells); set-up: expressed in transfected cells; settings: displacement of 125I-His9-ghrelin; plasma membranes of LLC PK-1 cells transiently transfected with human GHS-R 1a; mean of at least two independent experiments in triplicates
T1 sequence (Q92847 whole entry): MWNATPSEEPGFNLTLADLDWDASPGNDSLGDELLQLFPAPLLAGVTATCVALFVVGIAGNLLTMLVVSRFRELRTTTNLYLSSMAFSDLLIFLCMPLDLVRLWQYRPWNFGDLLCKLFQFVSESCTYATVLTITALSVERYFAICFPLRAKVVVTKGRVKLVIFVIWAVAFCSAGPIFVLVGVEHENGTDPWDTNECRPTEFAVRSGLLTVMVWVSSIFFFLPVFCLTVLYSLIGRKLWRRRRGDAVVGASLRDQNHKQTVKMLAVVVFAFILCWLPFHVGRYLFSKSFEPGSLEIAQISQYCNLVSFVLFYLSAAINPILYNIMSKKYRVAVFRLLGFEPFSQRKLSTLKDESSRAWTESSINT
Experimental: II) GHS-R 1a Receptor-Ligand Binding Assay (Membrane Preparations from Transfected LLC PK-1 Cells)
The GHS-R 1a receptor binding/affinity studies were performed according to Guerlavais et al. (J. Med. Chem. 2003, 46: 1191-1203).
Isolated plasma membranes from LLC PK-1 cells, a renal epithelial cell line originally derived from porcine kidneys (ECACC No. 86121112) (10 μg of protein), that were transiently transfected with human GHS-R 1a cDNA (Guerlavais et al., J. Med. Chem. 2003, 46: 1191-1203), were incubated in homogenization buffer HB [50 mM Tris (pH 7.3), 5 mM MgCl2, 2.5 mM EDTA, and 30 μg/mL bacitracin (Sigma)] for 60 min at 25° C. (steady-state conditions) with […] ^125I-His^9-ghrelin (Amersham) in the presence or absence of competing compounds (compounds of the invention).
Nonspecific binding was defined using an excess (10^−6 M) of ghrelin. The binding reaction was stopped by addition of 4 mL of ice-cold HB followed by rapid filtration over Whatman GP/C filters presoaked with 0.5% polyethyleneimine to prevent excessive binding of radioligand to the filters. Filters were rinsed three times with 3 mL of icecold wash buffer [50 mM Tris (pH 7.3), 10 mM MgCl2, 2.5 mM EDTA, and 0.015% (w/v) X-100 Triton], and the radioactivity bound to membranes was measured in a gammacounter (Kontron Analytical Gamma Matic, Automatic gamma counting system).
The concentration of test compounds required to inhibit radiolabelled ghrelin binding by 50% (IC50) was determined by fitting competitive binding curves using non-linear regression (PRISM 3.0, Graph Pad San Diego, USA).
In the following table 2 results obtained for selected compounds of the invention are presented in comparison to an example of the prior art. IC50 values given are the mean of at least two independent experiments performed in triplicates.

[2] = molecular target: T1, human GHS-R 1a; experiment: In vitro intracellular calcium release assay using human GHS-R 1a transfected CHO cells; assay type: cell-based; set-up: expressed in transfected cells; host or cells: CHO-K1 Chinese hamster ovary cells (ATCC No. CCL-61), transient transfection by electroporation; settings: for EC50: agonists, dose-response curve of intracellular calcium release; for activation at 1 µM: intracellular calcium release, compound at 10^-6 M, relative to basal level (0%) and 1 μM ghrelin (100%)
Experimental: The ability to properly activate the receptors is assessed for any compound of the invention by comparing the degree of activation (increase of intracellular calcium) of GHS-R 1a by the compound to be tested (at 10^−6 M concentration) to the degree of activation (increase of intracellular calcium) of GHS-R 1a by 10^−6 M ghrelin (100%) and to the basal level (0%). Such assessment can be readily performed by the skilled artisan due to his expert knowledge. The output is a percentage value for each compound to be tested. […]
III) In Vitro Intracellular Calcium Release Assay Using Human GHS-R 1a Transfected CHO Cells
The potential of the compounds of the invention to modulate GHS receptor activity was assessed by an in vitro intracellular Calcium release assay employing CHO cells that were transfected with human GHS-R 1a.
Release of intracellular calcium or inhibition thereof was measured using the fluorescent calcium indicator assay (FLIPR) and Fluo-4 AM.
CHO cells (CHO-KI Chinese Hamster Ovary cell line, ATCC No. CCL-61) were transiently transfected with human GHS-R 1a cDNA by electroporation and plated into 96-well black bottom plates (Corning 3603) (80,000 cells/well). Transient transfections were performed using the Easyject Optima Electroporator (Equibio), according to the manufacturer's instructions.
Transfected cells were grown in Dulbecco's modified Eagle's medium without phenol red, supplemented with 10% (v/v) non-essential amino acids, […] glutamine and streptomycin-penicillin (250 μg/ml-250 u/ml) (all purchased from Cambrex) at 37° C., 5% CO2 in a humidified atmosphere for 24 hours.
After incubation, transfected cells were washed with 150 μl Buffer A [Hanks' balanced salt solution (Sigma H-6648), 0.5% (v/v) BSA (Sigma A-7906), 20 mM CaCl2, 2.5 mM probenecid (pH 7.4, dissolved in 1 M NaOH) (Sigma P-8761)] and were then loaded with fluorescent calcium indicator Fluo-4 AM (10^−6 M) (Interchim UP72972) prepared in Buffer A, additionally containing 0.06% pluronic acid (Molecular probes P-6867) (a […] detergent which facilitates Fluo-4AM ester loading). (Loading: 100 μl per well of Buffer A containing 120 μl/ml Pluronic Acid and 1 μM Fluo-4AM was added to the cells).
After loading with Fluo-4 AM, transfected cells were incubated for 1 hour in the dark at 37° C.
Compounds to be tested were dissolved in Buffer A in triplicates at a concentration of 10^−6 M and distributed into another 96-well plate (Fisher Labosi A1210500).
Following incubation, excess Fluo-4AM was removed, 100 μl of Buffer A was added to each well at room temperature and immediately removed by aspiration. This was then repeated, before adding 50 μl Buffer A to each well.
Transfected cells were further incubated room temperature for 30 min to allow complete de-esterification of intracellular Fluo-4AM esters.
Subsequently, both plates, the black-bottom plate containing transfected cells and the microtiter plate containing the compounds to be tested, were then placed into a temperature-regulated (25° C.) FlexStation machine (benchtop scanning fluorometer Flex Station II, Molecular Devices, Sunnyvale, Calif., USA) for fluorescence output measurements.
Basal fluorescence output from the transfected cells was measured for 15 sec and then 50 μl of the compounds to be tested were automatically distributed into the wells containing the transfected cells. The fluorescence output was then recorded for a further 45 sec.
Excitation and emission wavelengths were 485 nm and 525 nm, respectively. Basal fluorescence intensity of Fluo-4AM-loaded transfected cells without compounds to be tested varied between 800-1200 arbitrary units, whereas maximal fluorescence output of dye-loaded transfected cells upon incubation with the compounds to be tested varied between 5000-7000 arbitrary units and was equivalent to that achieved by stimulation of dye-loaded transfected cells with 10^−6 M ghrelin. […]

IC50 [1] [nM] | EC50 [2] [nM] | activation at 1 µM [2] [%] | Structure (SMILES)
600 | 12 | 100 | O=C(N[C@H](Cc1c[nH]c2ccccc12)c1nnc(CCCc2c[nH]c3ccccc23)n1Cc1cccc2ccccc12)C1CCCN1 (stereo partly drawn) [Compound 44, N-((R)-1-(5-(3-(1H-indol-3-yl)propyl)-4-((naphthalen-1-yl)methyl)-4H-1,2,4-triazol-3-yl)-2-(1H-indol-3-yl)ethyl)pyrrolidine-2-carboxamide]
1.3 | 2 | 100 | COc1ccc(Cn2c(CCc3ccccc3)nnc2[C@@H](Cc2c[nH]c3ccccc23)NC(=O)C2(N)CCNCC2)c(OC)c1 [Compound 10, N-((R)-1-(4-(2,4-dimethoxybenzyl)-5-phenethyl-4H-1,2,4-triazol-3-yl)-2-(1H-indol-3-yl)ethyl)-4-aminopiperidine-4-carboxamide]
505 | 2.7 | 100 | O=C(N[C@H](Cc1c[nH]c2ccccc12)c1nnc(CCc2c[nH]c3ccccc23)n1Cc1cccc2ccccc12)[C@@H]1CCCN1 [Compound 31, (2S)-N-((R)-1-(5-(2-(1H-indol-3-yl)ethyl)-4-((naphthalen-1-yl)methyl)-4H-1,2,4-triazol-3-yl)-2-(1H-indol-3-yl)ethyl)pyrrolidine-2-carboxamide]
5 | 1.5 | 120 | O=C(N[C@H](Cc1c[nH]c2ccccc12)c1nnc(Cc2ccccc2)n1Cc1ccc(Cl)c(Cl)c1)C1CCNCC1 [Compound 33, N-((R)-1-(4-(3,4-dichlorobenzyl)-5-benzyl-4H-1,2,4-triazol-3-yl)-2-(1H-indol-3-yl)ethyl)piperidine-4-carboxamide]
125 |  | 0 | O=C(Cc1ccccn1)N[C@H](Cc1c[nH]c2ccccc12)c1nnc(CCc2c[nH]c3ccccc23)n1Cc1cccc2ccccc12 [Compound 30, N-((R)-1-(5-(2-(1H-indol-3-yl)ethyl)-4-((naphthalen-1-yl)methyl)-4H-1,2,4-triazol-3-yl)-2-(1H-indol-3-yl)ethyl)-2-(pyridin-2-yl)acetamide]
44.5 | 10.1 | 100 | NC1(C(=O)N[C@H](Cc2c[nH]c3ccccc23)c2nnc(CCc3ccccc3)n2Cc2cccc3ccccc23)CCNCC1 [Compound 49, N-((R)-2-(1H-indol-3-yl)-1-(4-((naphthalen-1-yl)methyl)-5-phenethyl-4H-1,2,4-triazol-3-yl)ethyl)-4-aminopiperidine-4-carboxamide]
11.1 | 2.5 | 70 | COc1ccc(Cn2c(CCc3c[nH]c4ccccc34)nnc2[C@@H](Cc2c[nH]c3ccccc23)NC(=O)c2cccc(CN)c2)cc1 [Compound 13, N-((R)-1-(5-(2-(1H-indol-3-yl)ethyl)-4-(4-methoxybenzyl)-4H-1,2,4-triazol-3-yl)-2-(1H-indol-3-yl)ethyl)-3-(amino-methyl)benzamide]
500 | 34 | 100 | CC(C)(N)C(=O)N[C@H](Cc1c[nH]c2ccccc12)c1nnc(CCCc2c[nH]c3ccccc23)n1Cc1ccccc1 [Compound 42, N-((R)-1-(5-(3-(1H-indol-3-yl)propyl)-4-benzyl-4H-1,2,4-triazol-3-yl)-2-(1H-indol-3-yl)ethyl)-2-amino-2-methylpropanamide]
11.8 | 16 | 31 | COc1ccc(Cn2c(CCc3ccccc3)nnc2[C@@H](Cc2c[nH]c3ccccc23)NC(=O)c2ccccc2)c(OC)c1 [Compound 5, N-((R)-1-(4-(2,4-dimethoxybenzyl)-5-phenethyl-4H-1,2,4-triazol-3-yl)-2-(1H-indol-3-yl)ethyl)benzamide]
204 |  | 4 | COc1ccc(Cn2c(CCc3ccccc3)nnc2[C@@H](Cc2c[nH]c3ccccc23)NC(=O)c2cccc(CN)c2)c(OC)c1 [Compound 6, N-((R)-1-(4-(2,4-dimethoxybenzyl)-5-phenethyl-4H-1,2,4-triazol-3-yl)-2-(1H-indol-3-yl)ethyl)-3-(amino-methyl)benzamide]
143 | 17 | 40 | COc1ccc(Cn2c(CCc3ccccc3)nnc2[C@@H](Cc2c[nH]c3ccccc23)NC(=O)[C@H]2CNCCN2)cc1 [Compound 2, (2R)-N-((R)-1-(4-(4-methoxybenzyl)-5-phenethyl-4H-1,2,4-triazol-3-yl)-2-(1H-indol-3-yl)ethyl)piperazine-2-carboxamide]
4 | 2.4 | 94 | O=C(N[C@H](Cc1c[nH]c2ccccc12)c1nnc(CCc2c[nH]c3ccccc23)n1Cc1cccc2ccccc12)C1CCNCC1 [Compound 17, N-((R)-1-(5-(2-(1H-indol-3-yl)ethyl)-4-((naphthalen-1-yl)methyl)-4H-1,2,4-triazol-3-yl)-2-(1H-indol-3-yl)ethyl)piperidine-4-carboxamide]
180 | 0.6 | 80 | O=C(N[C@H](Cc1c[nH]c2ccccc12)c1nnc(CCc2c[nH]c3ccccc23)n1Cc1cccc2ccccc12)C1CCOCC1 [Compound 20, N-((R)-1-(5-(2-(1H-indol-3-yl)ethyl)-4-((naphthalen-1-yl)methyl)-4H-1,2,4-triazol-3-yl)-2-(1H-indol-3-yl)ethyl)-tetrahydro-2H-pyran-4-carboxamide]
5.3 |  | 1 | O=C(N[C@H](Cc1c[nH]c2ccccc12)c1nnc(CCc2c[nH]c3ccccc23)n1Cc1cccc2ccccc12)c1ccccn1 [Compound 18, N-((R)-1-(5-(2-(1H-indol-3-yl)ethyl)-4-((naphthalen-1-yl)methyl)-4H-1,2,4-triazol-3-yl)-2-(1H-indol-3-yl)ethyl)picolinamide]
